Laboratory results: ChEMBL document CHEMBL5050856, “Atf6 modulators and uses thereof” (2021)

How the values were obtained:
Format in all cases: cell-based
U2OS [1] = assay: Modulation of ATF6 activity in human U2OS cells at 10 uM in presence of ER stress inducer thapsigargin (Tg) measured by TRE-luciferase reporter assay relative to control
U2OS [2] = assay: Modulation of ATF6 activity in human U2OS cells at 1 uM measured by TRE-luciferase reporter assay relative to control
U2OS [3] = assay: Modulation of ATF6 activity in human U2OS cells at 10 uM measured by TRE-luciferase reporter assay relative to control
U2OS [4] = assay: Modulation of ATF6 activity in human U2OS cells at 1 uM in presence of ER stress inducer thapsigargin (Tg) measured by TRE-luciferase reporter assay relative to control

Row | SMILES | Activity (U2OS [1]; filed as activator) [%] | Activity (U2OS [2]) [%] | Activity (U2OS [3]) [%] | Activity (U2OS [4]) [%] | Activity (U2OS [1]) [%] | Activity (U2OS [4]; filed as activator) [%]
1 | CC(c1c(Cl)cccc1Cl)n1cc(C#Cc2nnc(-c3ccccn3)s2)cn1 (configuration not stated) | 100 | 0 | 0 | 75 | – | –
2 | CC(c1ccc(C(F)(F)F)cc1C(F)(F)F)n1cc(/C=C/c2nnc(-c3ccccn3)s2)cn1 (configuration not stated) | – | – | – | – | < 50 | 100
3 | CC(c1ccc(C(F)(F)F)cc1C(F)(F)F)n1cc(CCc2nnc(-c3ccccn3)s2)cn1 (configuration not stated) | – | – | – | 75 | < 50 | –
4 | FC(F)(F)c1ccc(Cn2cc(C#Cc3nnc(-c4ccccn4)s3)cn2)c(C(F)(F)F)c1 | – | – | – | 50 | 75 | –
5 | O=C(Nc1cnn(C2CCCC2)c1)c1cc(-c2ccco2)on1 | > 150 | 0 | 0 | – | – | > 150
6 | O=C(Nc1cnn(C2CCNC2)c1)c1cc(-c2ccco2)on1 (configuration not stated) | > 150 | 0 | 0 | – | – | 125
7 | O=C(Nc1cnn(C2CNC2)c1)c1cc(-c2ccco2)on1 | – | 0 | – | – | – | 125
8 | O=C(Nc1cnn(CC2CCCC2)c1)c1cc(-c2ccco2)on1 | > 150 | 0 | 0 | – | – | > 150
9 | O=C(Nc1cnn(Cc2c(Cl)cncc2Cl)c1)c1cc(-c2ccco2)on1 | 125 | 0 | 0 | – | – | 100
10 | O=C(Nc1cnn(Cc2ccc(C(F)(F)F)cc2)c1)c1cc(-c2ccco2)on1 | – | 0 | – | – | 75 | 100
11 | O=C(Nc1cnn(Cc2ccc(C(F)(F)F)cc2C(F)(F)F)c1)c1cc(-c2ccco2)on1 | – | – | – | < 50 | < 50 | –
12 | O=C(Nc1cnn(Cc2ccccc2)c1)c1cc(-c2ccco2)on1 | 125 | 0 | 25 | – | – | 100
13 | CC(c1ccc(C(F)(F)F)cc1C(F)(F)F)n1cc(C#Cc2nnc(-c3ccccn3)s2)cn1 (stereo in doubt; 2-1) | – | – | – | 50 | < 50 | –
14 | CC(c1ccc(C(F)(F)F)cc1C(F)(F)F)n1cc(C#Cc2nnc(-c3ccccn3)s2)cn1 (stereo in doubt; 2-2) | – | – | – | < 50 | < 50 | –
15 | CC(c1ccc(C(F)(F)F)cc1C(F)(F)F)n1cc(/C=C\c2nnc(-c3ccccn3)s2)cn1 (stereo in doubt; 2-6) | – | – | – | – | 50 | 100
16 | CC(c1ccc(C(F)(F)F)cc1C(F)(F)F)n1cc(/C=C\c2nnc(-c3ccccn3)s2)cn1 (stereo in doubt; 2-7) | – | – | – | – | 75 | 100
17 | CC(c1ccc(C(F)(F)F)cc1C(F)(F)F)n1cc(/C=C\c2nnc(-c3ccccn3)s2)cn1 (stereo in doubt; 2-8) | – | – | – | – | 50 | 100
18 | CC(c1ccc(C(F)(F)F)cc1C(F)(F)F)n1cc(C#Cc2nnc(-c3cnccn3)s2)cn1 (stereo in doubt; 2-10) | – | – | – | 50 | 75 | –

Row | SMILES | Activity (U2OS [1]; filed as activator) [%] | Activity (U2OS [2]) [%] | Activity (U2OS [3]) [%] | Activity (U2OS [4]) [%] | Activity (U2OS [1]) [%] | Activity (U2OS [4]; filed as activator) [%]
19 | Cc1nn(C(C)c2ccc(C(F)(F)F)cc2C(F)(F)F)cc1C#Cc1nnc(-c2ccccn2)s1 (stereo in doubt; 2-11) | – | – | – | 50 | 50 | –
20 | CC(c1ccc(C(F)(F)F)cc1C(F)(F)F)n1cc(C#Cc2nnc(-c3cnccn3)s2)cn1 (stereo in doubt; 2-21) | – | – | – | 75 | 75 | –
21 | CC(c1ccc(C(F)(F)F)cc1C(F)(F)F)n1cc(C#Cc2nnc(-c3cnccn3)s2)cn1 (stereo in doubt; 2-22) | – | – | – | 50 | 75 | –
22 | Cc1nn(C(C)c2ccc(C(F)(F)F)cc2C(F)(F)F)cc1C#Cc1nnc(-c2ccccn2)s1 (stereo in doubt; 2-23) | – | – | – | 75 | 50 | –
23 | Cc1nn(C(C)c2ccc(C(F)(F)F)cc2C(F)(F)F)cc1C#Cc1nnc(-c2ccccn2)s1 (stereo in doubt; 2-24) | – | – | – | < 50 | < 50 | –
24 | CC(C1CCCC1)n1cc(NC(=O)c2cc(-c3ccco3)on2)cn1 (stereo in doubt; 3-5) | > 150 | 0 | 0 | – | – | 125
25 | CC(C1CCCC1)n1cc(NC(=O)c2cc(-c3ccco3)on2)cn1 (stereo in doubt; 3-17) | 125 | 0 | 0 | – | – | 125
26 | CC(C1CCCC1)n1cc(NC(=O)c2cc(-c3ccco3)on2)cn1 (stereo in doubt; 3-18) | 125 | 0 | 0 | – | – | 100
27 | O=C(Nc1cnn(C2CCOC2)c1)c1cc(-c2cccs2)on1 (stereo in doubt; 3-19) | > 150 | 0 | 25 | – | – | > 150
28 | O=C(Nc1cnn(C2CCOC2)c1)c1cc(-c2ccccn2)on1 (stereo in doubt; 3-20) | > 150 | 0 | 0 | – | – | 100
29 | O=C(Nc1cnn(C2CCOC2)c1)c1cc(-c2ccccn2)on1 (stereo in doubt; 3-21) | > 150 | 0 | 25 | – | – | > 150
30 | O=C(Nc1cnn(C2CCOC2)c1)c1cc(-c2cccs2)on1 (stereo in doubt; 3-22) | > 150 | 0 | 25 | – | – | 125
31 | O=C(Nc1cnn(C2CCOC2)c1)c1cc(-c2cccs2)on1 (stereo in doubt; 3-23) | > 150 | 25 | > 50 | – | – | > 150
32 | CC(C1CCOC1)n1cc(NC(=O)c2cc(-c3ccco3)on2)cn1 (stereo in doubt; 3-24) | > 150 | 0 | 25 | – | – | 100
33 | CC(C1CCOC1)n1cc(NC(=O)c2cc(-c3ccco3)on2)cn1 (stereo in doubt; 3-25) | > 150 | 0 | 0 | – | – | 100
34 | CC(C1CCOC1)n1cc(NC(=O)c2cc(-c3ccco3)on2)cn1 (stereo in doubt; 3-26) | > 150 | 0 | > 50 | – | – | > 150
35 | CC(C1CCOC1)n1cc(NC(=O)c2cc(-c3ccco3)on2)cn1 (stereo in doubt; 3-27) | > 150 | 0 | 25 | – | – | 100
